Experimental findings from patent US20070219212A1, “Pyranouidole Derivatives and the Use Thereof for the Treatment of Hepatitis C Virus Infection or Disease” (priority 2004, published 2007) are described below.

pIC50: −log10 of the molar value.

In experiment [1] the target is BB7 RNA-dependent RNA polymerase hepatitis C virus protein (Con1 HCV sequence) (Hepatitis C virus genotype 1b, UniProt Q9WMX2). The experiment is described as follows: Hepatitis C polymerase (BB7) inhibition. The class given is biochemical. The method, boiled down: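 Con1 (BB7) replicon-derived NS5B polymerase preincubated with compound (15% DMSO) 15 min at room temperature, then RNA template (~3 nM pOF) and nucleotides added. Reaction run 2 h at 22-25° C., stopped with EDTA (85 mM final). ^33P-labelled product captured on filters, washed with 0.5 M sodium phosphate pH 7.0, scintillation counted.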
BB7 RNA-dependent RNA polymerase hepatitis C virus protein (Con1 HCV sequence), sequence (Q9WMX2 2420-3010): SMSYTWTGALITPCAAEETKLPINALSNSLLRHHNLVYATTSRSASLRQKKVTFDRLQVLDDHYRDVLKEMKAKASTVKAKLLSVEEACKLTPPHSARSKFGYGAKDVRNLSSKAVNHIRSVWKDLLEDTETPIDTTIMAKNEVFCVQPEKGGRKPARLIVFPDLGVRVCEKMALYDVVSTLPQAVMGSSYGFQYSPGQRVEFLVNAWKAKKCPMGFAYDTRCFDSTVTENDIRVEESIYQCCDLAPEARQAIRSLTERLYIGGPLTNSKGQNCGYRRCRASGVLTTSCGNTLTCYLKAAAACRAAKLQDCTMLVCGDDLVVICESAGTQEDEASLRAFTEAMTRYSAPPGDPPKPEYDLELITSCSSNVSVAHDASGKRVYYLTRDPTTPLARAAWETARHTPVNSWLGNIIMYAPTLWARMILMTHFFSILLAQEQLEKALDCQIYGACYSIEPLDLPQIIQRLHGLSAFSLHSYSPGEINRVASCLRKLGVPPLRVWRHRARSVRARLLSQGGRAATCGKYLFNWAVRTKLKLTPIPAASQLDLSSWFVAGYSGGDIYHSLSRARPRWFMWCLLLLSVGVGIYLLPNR

For experiment [2], the target named is T1, NS5B from the BK strain (genotype 1b) (Hepatitis C virus genotype 1b, UniProt P26663).
T1 construct: NS5B from the BK strain (genotype 1b) is expressed in E coli as a protein in which the 21 C-terminal amino acids are replaced; made in house; host or cells: E. coli
T1 sequence (P26663 2420-2989): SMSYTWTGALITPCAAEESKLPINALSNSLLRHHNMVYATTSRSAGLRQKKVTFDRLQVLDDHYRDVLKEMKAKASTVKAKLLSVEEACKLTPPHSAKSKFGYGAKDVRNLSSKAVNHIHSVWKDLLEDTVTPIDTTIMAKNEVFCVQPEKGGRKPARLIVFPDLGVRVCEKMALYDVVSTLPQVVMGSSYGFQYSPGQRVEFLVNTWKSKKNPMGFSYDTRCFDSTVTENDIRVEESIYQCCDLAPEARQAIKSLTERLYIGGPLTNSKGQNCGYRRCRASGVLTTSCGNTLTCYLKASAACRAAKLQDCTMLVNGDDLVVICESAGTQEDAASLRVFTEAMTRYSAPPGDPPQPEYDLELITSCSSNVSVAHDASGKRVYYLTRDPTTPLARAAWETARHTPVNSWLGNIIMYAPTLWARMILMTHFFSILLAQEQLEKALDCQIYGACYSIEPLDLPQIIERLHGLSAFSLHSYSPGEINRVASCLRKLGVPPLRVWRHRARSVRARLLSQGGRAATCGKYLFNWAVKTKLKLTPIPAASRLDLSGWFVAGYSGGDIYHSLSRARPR
Put plainly: Hepatitis C polymerase (NS5B, BK strain) inhibition, radioactive filter assay. Format: biochemical. As to conditions: NS5B BK strain (genotype 1b). In a few lines:
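E. coli-expressed C-terminally truncated His-tagged NS5B preincubated 15 min with compound at room temperature, then run 2 h at 22-25 °C on a hairpin-primed heteropolymeric RNA template (~3 nM) with radioactive nucleotides. EDTA stop; ~760 nt 33P product captured on filters, washed with phosphate buffer pH 7.0, scintillation counted.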

In the case of `CCC[C@]1(CC(=O)O)OCCc2c1[nH]c1c(C)c(OCCCOC)cc(C#N)c21` [Example 27, (R)-[5-Cyano-7-(3-methoxy-propoxy)-8-methyl-1-propyl-1,3,4,9-tetrahydro-pyrano[3,4-b]indol-1-yl]-acetic acid], the negative-log IC50 (pIC50) in experiment [1] and in experiment [2] was greater than 6.30 each time.

For the compound `CCCC1(CC(=O)O)OCCc2c1[nH]c1c(C)c(OCc3ccnc(C(=O)O)c3)cc(C#N)c21` (stereo not shown) [Example 61], the negative logarithm of the IC50 (pIC50) in experiment [1] and in experiment [2] was greater than 6.30 in each case.

As for `CCCC1(CC(=O)O)OCCc2c1[nH]c1c(C)c(OCc3ccncc3)cc(C#N)c21` (stereo not shown) [Example 24, [5-Cyano-8-methyl-1-propyl-7-(pyridin-4-ylmethoxy)-1,3,4,9-tetrahydro-pyrano[3,4-b]indol-1-yl]-acetic acid], the pIC50 in experiment [1] and in experiment [2] was greater than 6.30 throughout.

Take `CCCC1(CC(=O)O)OCCc2c1[nH]c1c(C)c(OCCSC)cc(C#N)c21` (stereo not shown) [Example 50]: the pIC50 in experiment [1] and in experiment [2] was greater than 6.30 in each case.

On to `CCC[C@@]1(CC(=O)O)OCCc2c1[nH]c1c(C)c(OCc3cc(C)on3)cc(C#N)c21` [Example 57], for which the values for the pIC50 in experiment [1] and in experiment [2] were 5.30 to 6.30 and less than 5.30, respectively.

Regarding `CCCC1(CC(=O)O)OCCc2c1[nH]c1c(C)c(COC(C)C)cc(C#N)c21` (stereo not shown) [Example 5, (5-Cyano-7-isopropoxymethyl-8-methyl-1-propyl-1,3,4,9-tetrahydro-pyrano[3,4-b]indol-1-yl)-acetic acid], the negative-log IC50 (pIC50) in experiment [1] is greater than 6.30; in experiment [2], 5.30 to 6.30.

On to `CCCC1(CC(=O)O)OCCc2c1[nH]c1c(C)c(CO[C@H]3CCOC3)cc(C#N)c21` (mixture of isomers) [Example 13, (3′S,1S*)[5-Cyano-8-methyl-1-propyl-7-(tetrahydro-furan-3-yloxymethyl)-1,3,4,9-tetrahydro-pyrano[3,4-b]indol-1-yl]-acetic acid], for which the pIC50 in experiment [1] and in experiment [2] was 5.30 to 6.30 throughout.

Turning to `CCCC1(CC(=O)O)OCCc2c1[nH]c1c(C)c(OCCCc3cc(C)no3)cc(C#N)c21` (stereo not shown) [Example 89], the pIC50 in experiment [1] and in experiment [2] was greater than 6.30 each time.
